US6828339B2, “Amlodipine salt forms and processes for preparing them” (Synthon BV, priority 2001, dated 2004)
One block for each compound: values may come before it.

Tests used:
Format in all cases: physicochemical
[1] = Weight gain of dried (anhydrate) salt form on exposure to air; settings: exposed to air
From the text: 1(c). A sample of the anhydrate formed in example 1(b) was exposed to air and the weight gain recorded as follows: […]

[2] = Annealing of the dihydrate, form checked by IR
Method: 1(d). A sample from example 1(a) was annealed for 10 minutes at 90° C. while another sample of the same product was annealed for 30 minutes at 145° C. […] The IR for the sample annealed for 10 minutes is as shown in FIG. 4 and the IR for the sample annealed for 30 minutes is as shown in FIG. 5.

[3] = Weight loss on drying in a vacuum oven; settings: vacuum oven at 40° C. for 65 hours
Method: 1(b). 735.1 mg of the product of example 1(a) was dried in a vacuum oven at 40° C. for 65 hours. The weight loss was 0.043 g or 5.85%, which corresponds to 1.9 moles of water per mole of amlodipine.

[4] = Stability in solid state and in solution
[5] = Light sensitivity; settings: compared with known anhydrate
[6] = compared with known prior art anhydrate

- moles of water taken up for one mole of amlodipine ([1]; 21 hour): two
- Weight after 30 min ([1]; weight at start 103.1 mg): 105.7 mg
- Weight after 1 hour ([1]; weight at start 103.1 mg): 107.3 mg
- Weight after 3.5 hour ([1]; weight at start 103.1 mg): 109.3 mg
- Weight after 21 hour ([1]; weight at start 103.1 mg): 109.3 mg
Compound: CCOC(=O)C1=C(COCCN)NC(C)=C(C(=O)OC)C1c1ccccc1Cl.O=S(=O)(O)c1ccccc1 (centres unmarked) [example 1(b)]

Compound: amlodipine besylate dihydrate [example 1(a)]
- form after annealing (IR) ([2]; annealed for 10 minutes at 90° C.): converted to the known anhydrate form
- form after annealing (IR) ([2]; annealed for 30 minutes at 145° C.): converted to the known anhydrate form
- moles of water per mole of amlodipine lost [3]: 1.9 mol

- mole of water taken up for one mole of amlodipine ([1]; 21 hour): one
- Weight after 30 min ([1]; weight at start 318.6 mg): 320.3 mg
- Weight after 1 hour ([1]; weight at start 318.6 mg): 323.9 mg
- Weight after 3.5 hour ([1]; weight at start 318.6 mg): 328.2 mg
- Weight after 21 hour ([1]; weight at start 318.6 mg): 328.2 mg
Compound: CCOC(=O)C1=C(COCCN)NC(C)=C(C(=O)OC)C1c1ccccc1Cl.O=S(=O)(O)c1ccccc1 (centres unmarked) [example 2(a)]

Compound: amlodipine besylate monohydrate
- stability in solid state [4, 6]: equivalent to the known prior art amlodipine besylate anhydrate form
- stability in solution [4, 6]: equivalent to the known prior art amlodipine besylate anhydrate form
- stability of hydrate form ([4]; monohydrate compared with dihydrate, conversion by heating): more stable than the dihydrate form
- light sensitivity [5]: slightly less in comparison to the known anhydrate
